Literature values, collected in patent US9095515B2, “Ezetimibe compositions” (Sanovel Ilac Sanayi Ve Ticaret Anonim Sirketi, priority 2009, dated 2015).

Conditions: reported

In the case of `O=C1[C@H](CC[C@H](O)c2ccc(F)cc2)[C@@H](c2ccc(O)cc2)N1c1ccc(F)cc1` [Ezetimibe, (3R,4S)-1-(4-fluorophenyl)-3-[(3S)-3-(4-fluorophenyl)-3-hydroxypropyl]-4-(4-hydroxyphenyl)azetidin-2-one], the solubility in water is given as “practically insoluble”.
